{"source": "patent US20220054494A1", "about": "“METHODS FOR TREATING BLADDER AND URETHRA DYSFUNCTION AND DISEASE” (University of Pittsburgh - Of the Commonwealth System of …, priority 2019, published 2022)", "format_in_all_cases": "in vivo, rat", "key": {"mitofusin 2 (MFN2)": {"system": "mitofusin 2 (MFN2)", "assay": "Western immunoblotting, mitofusin 2", "details": "aged rats; oral 8-AG 5 mg/kg/day, 6 weeks", "procedure": "Western immunoblotting: One half of each bladder preparation was homogenized using Lysing Matrix D in a FastPrep 24 instrument (MP Biomedicals, Solon, Ohio) in HBSS (5 mM KCl, 0.3 mM KH2PO4, 138 mM NaCl, 4 mM NaHO3, 0.3 mM Na2HCO3, 0.3 mM Na2HPO4, 5.6 mM glucose and 10 mM Hepes, pH 7.4) containing complete protease inhibitor cocktail (1 tablet/10 ml, ROCHE®, Indianapolis, Ind.)) and phosphatase inhibitor cocktail (SIGMA®, 1:100). After centrifugation (13000 rpm; 15 min at 4° C.), the membrane protein fraction was prepared by suspending the membrane pellets in lysis buffer containing 0.3 M NaCl, 50 mM Tris-HCl (pH 7.6) and 0.5% Triton X-100 and the same concentration of protease inhibitors as above. The suspensions were incubated on ice and centrifuged (13000 rpm; 15 min at 4° C.). The protein concentrations of the combined supernatants were determined using the PIERCE® BCA protein assay (THERMO SCIENTIFIC®, Rockford, Ill.). […] As a loading control, total protein per sample was determined using Bio-Rad® Stain Free SDS-PAGE gel technology. UV-activated protein fluorescence was imaged on a CHEMIDOC® MP (BIO-RAD®). […] The volume (intensity) of each protein species was determined and normalized to total protein using Image Lab software (BIO-RAD®)."}, "bladder blood flow": {"system": "bladder blood flow", "assay": "Laser Doppler flowmeter bladder blood flow, aged rats", "details": "oral 8-AG 5 mg/kg/day, 6 weeks, compared with young rats", "from_the_text": "Vascular Changes: Bladders that had been perfused transcardially with PBS buffer containing 20 nm yellow-green fluorescent beads (THERMO FISHER®, F8787) to highlight the vasculature were fixed then cleared by removing lipids and dissolving light-absorbing chromophores within the tissue. Volumetric data were acquired using a Caliber ID RS-G4 ribbon scanning confocal microscope (NIKON® Inc, Tokyo, Japan), which can acquire large-area images (uses a high nA (1.0) long working distance (8 mm) with low magnification (20×)). This affords the advantage of interrogating whole tissues in a three-dimensional environment without the need to section. Real-time blood perfusion (1 mm3 tissue) was accomplished using a BLF22D laser Doppler flowmeter (Transonic Systems, Inc) with a surface probe (TypeS-APLPHS) applied to the serosal surface of the bladder (apex and neck) wall using Doppler light shift from moving RBCs to analyze flow by the Bonner algorithm. This method gives robust, non-invasive microvascular flow signals in the bladder wall of anesthetized rats."}, "AVP receptor V2": {"system": "AVP receptor V2", "assay": "Western immunoblotting, kidney V2 vasopressin receptor", "details": "aged Fisher 344 rats; 8-AG 5 mg kg/day via drinking water, 1 month", "procedure": "Western immunoblotting and transmission electron microscopy: Following these testing paradigms, rats were deeply anesthetized, bladders were removed, and one half of each bladder (using the smooth muscle layer) was homogenized using Lysing Matrix D in a FASTPREP-24™ instrument (MP BIOMEDICALS™, Solon, Ohio) in HBSS (5 mM KCl, 0.3 mM KH2PO4, 138 mM NaCl, 4 mM NaHO3, 0.3 mM Na2HCO3, 0.3 mM Na2HPO4, 5.6 mM glucose and 10 mM Hepes, pH 7.4) containing complete protease inhibitor cocktail (1 tablet/10 ml, ROCHE™, Indianapolis, Ind.) and phosphatase inhibitor cocktail (SIGMA®, 1:100). Whole rat kidney was also homogenized using the same procedure. After centrifugation (13000 rpm; 15 min at 4° C.), the membrane protein fraction was prepared by suspending the membrane pellets in lysis buffer containing 0.3 M NaCl, 50 mM Tris-HCl (pH 7.6), 0.5% Triton X-100, and the same concentration of protease inhibitors as above. […] The protein concentrations of the combined supernatants were determined using the PIERCE™ BCA protein assay (THERMO SCIENTIFIC™, Rockford, Ill.). […] As a loading control, total protein per sample was determined using BIO-RAD™ Stain Free SDS-PAGE gel technology. UV-activated protein fluorescence was imaged on a CHEMIDOC™ MP (BIO-RAD™). […] The volume (intensity) of each protein species was determined and normalized to total protein using Image Lab software (BIO-RAD™)."}}, "note": "“Also recorded” adds a separate entry of the source.", "data": [{"smiles": "Nc1nc2[nH]c(N)nc2c(=O)[nH]1", "note": "[8-AG, 8-Aminoguanine]", "values": [{"measurement": "mitofusin 2 (MFN2) in bladder mucosa", "setting": "mitofusin 2 (MFN2)", "result": "reversed or restored to levels similar to the younger state; also recorded: restored changes similar to a younger state"}, {"measurement": "bladder blood flow (Doppler flowmeter)", "setting": "bladder blood flow", "result": "no significant difference; also recorded: reversed to a younger state"}, {"measurement": "V2 vasopressin receptor in kidney", "setting": "AVP receptor V2", "result": "restored to a younger state; also recorded: restored to levels similar to the younger state"}]}]}
